According to patent US20260042731A1, “(2,4-DICHLOROPHENOXY)ACETIC ACID ANALOGS” (CORTEVA AGRISCIENCE LLC, priority 2022, published 2026):
Where two headings read alike, the source gives them in different places.

Legend:
[1] = system: Abutilon theophrasti (ABUTH), velvetleaf; experiment: Postemergence herbicide evaluation, growth of Abutilon theophrasti (ABUTH); format: in vivo; conditions: for AVE. ABUTH: percent reduction in plant size vs untreated control; for pest or weed control at 280 g/ha / pest or weed control at 560 g/ha: Abutilon theophrasti, post-emergence, read-out: AVE. ABUTH, percent reduction in plant size relative to the untreated control
[2] = system: glyphosate resistant Conyza canadensis (L.) (ERICA), horseweed; experiment: Postemergence herbicide evaluation, growth of Conyza canadensis (ERICA); format: in vivo; conditions: for Ave. ERICA: percent reduction in plant size vs untreated control; for pest or weed control at 280 g/ha / pest or weed control at 560 g/ha: Erigeron canadensis, post-emergence, read-out: Ave. ERICA, percent reduction in plant size relative to the untreated control
[3] = system: Chenopodium album (CHEAL), common lambsquarters; experiment: Postemergence herbicide evaluation, growth of Chenopodium album (CHEAL); format: in vivo; conditions: for Ave. CHEAL: percent reduction in plant size vs untreated control; for pest or weed control at 280 g/ha / pest or weed control at 560 g/ha: Chenopodium album, post-emergence, read-out: Ave. CHEAL, percent reduction in plant size relative to the untreated control
[4] = system: Ambrosia artemisiifolia (AMBEL), common ragweed; experiment: Postemergence herbicide evaluation, growth of Ambrosia artemisiifolia (AMBEL); format: in vivo; conditions: for AVE. AMBEL: percent reduction in plant size vs untreated control; for pest or weed control at 280 g/ha / pest or weed control at 560 g/ha: Ambrosia artemisiifolia, post-emergence, read-out: AVE. AMBEL, percent reduction in plant size relative to the untreated control
[5] = system: Amaranthus rudis (AMATA), tall water hemp; experiment: Postemergence herbicide evaluation, growth of Amaranthus rudis (AMATA); format: in vivo; conditions: for Ave. AMATA: percent reduction in plant size vs untreated control; for pest or weed control at 280 g/ha / pest or weed control at 560 g/ha: Amaranthus tuberculatus, post-emergence, read-out: Ave. AMATA, percent reduction in plant size relative to the untreated control
[6] = system: weeds ABUTH, AMATA, AMBEL, CHEAL, ERICA; experiment: Postemergence herbicide evaluation, overall average % weed control across ABUTH, AMATA, AMBEL, CHEAL and ERICA; format: in vivo; conditions: average over five weeds
[7] = system: Glycine max (Enlist E3 traited soybeans, GLXMA); conditions: Enlist E3 soybean, percent reduction in plant size vs untreated control
[8] = system: weeds ABUTH, AMATA, AMBEL, CHEAL, ERICA; experiment: Postemergence herbicide evaluation, overall average % weed control (ABUTH, AMATA, AMBEL, CHEAL, ERICA); format: in vivo; conditions: post-emergence, read-out: Overall Ave % Weed Control; for pest or weed control at 280 g/ha: 280 g ae/ha; for pest or weed control at 560 g/ha: 560 g ae/ha
[9] = Volatility of compounds measured by thermogravimetric analysis (TGA); format: physicochemical
[10] = system: Common Lambsquarters (CHEAL); experiment: Greenhouse post-emergence mixture trials, percent visual control; format: in vivo; conditions: CHEAL, 21 DAA, Trial Bridge 2, compound 560 g ae/ha + Saflufenacil 75 g ai or ae/ha
Corn (ZEAMX) = experiment: as above; format: in vivo; conditions: ZEAMX, 21 DAA

In the case of `CC(C)CCCCCOC(=O)COc1ccc(Cl)cc1Cl` [Isooctyl Ester, 2,4-D-isoctyl, reference compound], the “AVE. ABUTH” value ([1]; 280 g ae/ha, 7 DAA) is reported as 72.5%, the “AVE. ABUTH” value ([1]; 280 g ae/ha, 14 DAA) is reported as 80% and the “AVE. ABUTH” value ([1]; 280 g ae/ha, 21 DAA) is reported as 97.5%. The “AVE. ABUTH” value ([1]; 560 g ae/ha, 7 DAA) was 77.5%, the “AVE. ABUTH” value ([1]; 560 g ae/ha, 14 DAA) was 98.5% and the “AVE. ABUTH” value ([1]; 560 g ae/ha, 21 DAA) was 100%. The “Ave. ERICA” value ([2]; 280 g ae/ha, 7 DAA) was 85%, the “Ave. ERICA” value ([2]; 280 g ae/ha, 14 DAA) was 100% and the “Ave. ERICA” value ([2]; 280 g ae/ha, 21 DAA) was 98%. For the same compound, the “Ave. ERICA” value ([2]; 560 g ae/ha, 7 DAA) was 85%, the “Ave. ERICA” value ([2]; 560 g ae/ha, 14 DAA) was 98.5% and the “Ave. ERICA” value ([2]; 560 g ae/ha, 21 DAA) was 99.5%. For the same compound, the “Ave. CHEAL” value ([3]; 280 g ae/ha, 7 DAA) was 82.5%, the “Ave. CHEAL” value ([3]; 280 g ae/ha, 14 DAA) was 95% and the “Ave. CHEAL” value ([3]; 280 g ae/ha, 21 DAA) was 96%. For the same compound, the “Ave. CHEAL” value ([3]; 560 g ae/ha, 7 DAA) was 77.5%, the “Ave. CHEAL” value ([3]; 560 g ae/ha, 14 DAA) was 96.5% and the “Ave. CHEAL” value ([3]; 560 g ae/ha, 21 DAA) was 93.5%. For the same compound, the “AVE. AMBEL” value ([4]; 280 g ae/ha, 7 DAA) was 82.5%, the “AVE. AMBEL” value ([4]; 280 g ae/ha, 14 DAA) was 77.5% and the “AVE. AMBEL” value ([4]; 280 g ae/ha, 21 DAA) was 100%. The “AVE. AMBEL” value ([4]; 560 g ae/ha, 7 DAA) was 65%, the “AVE. AMBEL” value ([4]; 560 g ae/ha, 14 DAA) was 90% and the “AVE. AMBEL” value ([4]; 560 g ae/ha, 21 DAA) was 100%. The “Ave. AMATA” value ([5]; 280 g ae/ha, 7 DAA) was 80%, the “Ave. AMATA” value ([5]; 280 g ae/ha, 14 DAA) was 92.5% and the “Ave. AMATA” value ([5]; 280 g ae/ha, 21 DAA) was 65%. The “Ave. AMATA” value ([5]; 560 g ae/ha, 7 DAA) was 85%, the “Ave. AMATA” value ([5]; 560 g ae/ha, 14 DAA) was 87.5% and the “Ave. AMATA” value ([5]; 560 g ae/ha, 21 DAA) was 85%. For the same compound, the “Overall Ave % Weed Control” value ([6]; 280 g ae/ha, 7 DAA) was 80.5%, the “Overall Ave % Weed Control” value ([6]; 280 g ae/ha, 14 DAA) was 89% and the “Overall Ave % Weed Control” value ([6]; 280 g ae/ha, 21 DAA) was 91.3%. The “Overall Ave % Weed Control” value ([6]; 560 g ae/ha, 7 DAA) was 78%, the “Overall Ave % Weed Control” value ([6]; 560 g ae/ha, 14 DAA) was 94.2% and the “Overall Ave % Weed Control” value ([6]; 560 g ae/ha, 21 DAA) was 95.6%. The “AVE. GLXMA” value ([7]; 280 g ae/ha, 7 DAA) was 0%, the “AVE. GLXMA” value ([7]; 280 g ae/ha, 14 DAA) was 0% and the “AVE. GLXMA” value ([7]; 280 g ae/ha, 21 DAA) was 0%. The “AVE. GLXMA” value ([7]; 560 g ae/ha, 7 DAA) was 0%, the “AVE. GLXMA” value ([7]; 560 g ae/ha, 14 DAA) was 0% and the “AVE. GLXMA” value ([7]; 560 g ae/ha, 21 DAA) was 0%.

`O=C(COc1ccc(Cl)cc1Cl)Nc1ccon1` [Compound D2, 2-(2,4-Dichlorophenoxy)-N-(isoxazol-3-yl)acetamide] showed a pest or weed control at 280 g/ha ([1]; 168 h, 280 g ae/ha, 7 DAA) of 78%, a pest or weed control at 560 g/ha ([1]; 168 h, 560 g ae/ha, 7 DAA) of 88% and a pest or weed control at 280 g/ha ([1]; 336 h, 280 g ae/ha, 14 DAA) of 83%. It also gave a pest or weed control at 560 g/ha ([1]; 336 h, 560 g ae/ha, 14 DAA) of 93%, a pest or weed control at 280 g/ha ([1]; 504 h, 280 g ae/ha, 21 DAA) of 80% and a pest or weed control at 560 g/ha ([1]; 504 h, 560 g ae/ha, 21 DAA) of 99%. For the same compound, the pest or weed control at 280 g/ha ([2]; 168 h, 280 g ae/ha, 7 DAA) was 68%, the pest or weed control at 560 g/ha ([2]; 168 h, 560 g ae/ha, 7 DAA) was 73% and the pest or weed control at 280 g/ha ([2]; 336 h, 280 g ae/ha, 14 DAA) was 88%. For the same compound, the pest or weed control at 560 g/ha ([2]; 336 h, 560 g ae/ha, 14 DAA) was 94%, the pest or weed control at 280 g/ha ([2]; 504 h, 280 g ae/ha, 21 DAA) was 91% and the pest or weed control at 560 g/ha ([2]; 504 h, 560 g ae/ha, 21 DAA) was 99%. For the same compound, the pest or weed control at 280 g/ha ([3]; 168 h, 280 g ae/ha, 7 DAA) was 70%, the pest or weed control at 560 g/ha ([3]; 168 h, 560 g ae/ha, 7 DAA) was 73% and the pest or weed control at 280 g/ha ([3]; 336 h, 280 g ae/ha, 14 DAA) was 73%. It also gave a pest or weed control at 560 g/ha ([3]; 336 h, 560 g ae/ha, 14 DAA) of 88%, a pest or weed control at 280 g/ha ([3]; 504 h, 280 g ae/ha, 21 DAA) of 78% and a pest or weed control at 560 g/ha ([3]; 504 h, 560 g ae/ha, 21 DAA) of 97%. For the same compound, the pest or weed control at 280 g/ha ([4]; 168 h, 280 g ae/ha, 7 DAA) was 68%, the pest or weed control at 560 g/ha ([4]; 168 h, 560 g ae/ha, 7 DAA) was 73% and the pest or weed control at 280 g/ha ([4]; 336 h, 280 g ae/ha, 14 DAA) was 89%. It also gave a pest or weed control at 560 g/ha ([4]; 336 h, 560 g ae/ha, 14 DAA) of 97%, a pest or weed control at 280 g/ha ([4]; 504 h, 280 g ae/ha, 21 DAA) of 100% and a pest or weed control at 560 g/ha ([4]; 504 h, 560 g ae/ha, 21 DAA) of 97%. For the same compound, the pest or weed control at 280 g/ha ([8]; 168 h, 7 DAA) was 71%, the pest or weed control at 560 g/ha ([8]; 168 h, 7 DAA) was 77% and the pest or weed control at 280 g/ha ([8]; 336 h, 14 DAA) was 83%. The pest or weed control at 560 g/ha ([8]; 336 h, 14 DAA) was 92%, the pest or weed control at 280 g/ha ([8]; 504 h, 21 DAA) was 88% and the pest or weed control at 560 g/ha ([8]; 504 h, 21 DAA) was 98%. For the same compound, the pest or weed control at 280 g/ha ([5]; 168 h, 280 g ae/ha, 7 DAA) was 70%, the pest or weed control at 560 g/ha ([5]; 168 h, 560 g ae/ha, 7 DAA) was 78% and the pest or weed control at 280 g/ha ([5]; 336 h, 280 g ae/ha, 14 DAA) was 85%. The pest or weed control at 560 g/ha ([5]; 336 h, 560 g ae/ha, 14 DAA) was 92%, the pest or weed control at 280 g/ha ([5]; 504 h, 280 g ae/ha, 21 DAA) was 94% and the pest or weed control at 560 g/ha ([5]; 504 h, 560 g ae/ha, 21 DAA) was 97%. For the same compound, the “TGA Data (rate of weight loss, volatility)” value [9] was 0.2 µg/min, the “% Control” value [10] was 100% and the “% Control” value (Corn (ZEAMX); Trial Bridge 1, compound 1120 g ae/ha + Glufosinate 600 g ai or ae/ha) was 5%. It also gave a plant injury at 560 g/ha (Corn (ZEAMX); Zea mays, post-emergence, 504 h, compound 560 g ae/ha, no mixing partner, Trial Bridge 3) of 5%.
